Source: ChEMBL document CHEMBL4219231, “Nε-Acryloyllysine Piperazides as Irreversible Inhibitors of Transglutaminase 2: Synthesis, Structure-Activity Relationships, and Pharmacokinetic Profiling” (J Med Chem, 2018)

Assays:
[1] = molecular target: T1, Protein-glutamine gamma-glutamyltransferase (Homo sapiens, UniProt P21980); assay: Reversible inhibition of human TGase 2 using Z-Glu(HMC)-Gly-OH as substrate measured at 20 secs interval over 900 secs by fluorimetric assay
T1 sequence (P21980 whole entry): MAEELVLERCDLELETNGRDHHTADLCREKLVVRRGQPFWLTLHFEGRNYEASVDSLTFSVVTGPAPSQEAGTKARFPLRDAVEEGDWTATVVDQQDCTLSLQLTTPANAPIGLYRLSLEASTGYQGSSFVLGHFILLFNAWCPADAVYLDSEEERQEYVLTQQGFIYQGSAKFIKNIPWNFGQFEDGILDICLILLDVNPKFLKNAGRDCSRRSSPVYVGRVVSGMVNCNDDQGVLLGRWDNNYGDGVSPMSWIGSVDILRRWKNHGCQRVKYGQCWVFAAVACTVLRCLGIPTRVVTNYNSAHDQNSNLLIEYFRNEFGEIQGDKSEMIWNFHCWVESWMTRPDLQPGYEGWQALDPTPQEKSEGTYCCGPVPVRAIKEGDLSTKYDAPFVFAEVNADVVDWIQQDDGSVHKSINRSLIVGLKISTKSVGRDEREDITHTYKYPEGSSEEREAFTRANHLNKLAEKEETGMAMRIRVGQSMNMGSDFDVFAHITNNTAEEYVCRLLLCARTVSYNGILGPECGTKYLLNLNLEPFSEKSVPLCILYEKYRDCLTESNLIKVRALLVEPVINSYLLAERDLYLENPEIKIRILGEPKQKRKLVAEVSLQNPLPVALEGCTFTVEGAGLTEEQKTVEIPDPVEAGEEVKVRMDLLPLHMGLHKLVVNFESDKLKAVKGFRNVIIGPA

[2] = molecular target: T1, Protein-glutamine gamma-glutamyltransferase; assay: Inhibition of human TGase 2 using R-I-Cad/DMC as substrate preincubated for 5 mins followed by substrate addition measured at 30 secs interval over 900 secs by fluorescence anisotropy assay
[3] = molecular target: T1, Protein-glutamine gamma-glutamyltransferase; assay: Irreversible inhibition of human TGase 2 using Z-Glu(HMC)-Gly-OH as substrate measured at 20 secs interval over 900 secs by fluorimetric assay
in vitro = details: PAMPA
Description: Effective permeability of the compound by PAMPA assay

[4] = Metabolic stability in mouse liver microsomes assessed as parent compound remaining at 100 uM measured after 60 mins by HPLC-UV analysis; assay type: ADME, microsome; details: for Stability: microsomes, 1 h, 100 µM
[5] = n-octanol-phosphate buffer partition coefficient, log D of compound at pH 7.4 by 19F NMR analysis; assay type: physicochemical
[6] = Membrane retention, RM of the compound; assay type: physicochemical
[7] = Chromatographic hydrophobicity index in immobilized artificial membrane at pH 7.4 by HPLC method; assay type: ADME, cell membranes
[8] = Inhibition of guinea pig TGase 2 using F-Cad/DMC as substrate preincubated for 30 mins followed by substrate addition measured at 30 secs interval over 900 secs by fluorescence anisotropy assay; set-up: species or system Cavia porcellus

| Ki [3] [µM] | Papp (in vitro) [×10⁻⁶ cm/s] | Rm [6] [%] | CHI [7] | SMILES | other results |
| --- | --- | --- | --- | --- | --- |
| 7.55 |  |  |  | C=CC(=O)NCCCC[C@H](NC(=O)Cc1ccccc1)C(=O)N1CCN(c2cccc(C)c2)CC1 |  |
| 2.55 | 0.51 | 31 | 25.4 | C=CC(=O)NCCCC[C@H](NC(=O)Cc1ccccc1)C(=O)N1CCN(c2ccncc2)CC1 | Stability [4]: Stable |
| 14 | 4.08 | 12 | 28.5 | C=CC(=O)NCCCC[C@H](NC(=O)c1ccc(F)cc1)C(=O)N1CCN(c2ccc([N+](=O)[O-])nc2)CC1 | Stability [4]: Stable; logD [5]: 2.21 |
|  | 4.04 |  |  | COCCc1ccc(OCC(O)CNC(C)C)cc1 (stereo unspecified) [METOPROLOL] |  |
| 4.49 | 11.4 | 21 | 30.1 | C=CC(=O)NCCCC[C@H](NC(=O)Cc1ccccc1F)C(=O)N1CCN(c2cccc(C)n2)CC1 |  |
| 13.4 | 3.05 | -3 | 25 | C=CC(=O)NCCCC[C@H](NC(=O)Cc1ccccc1)C(=O)N1CCN(C(=O)c2ccc(F)cc2)CC1 | remaining at 1 h, 100 µM ([4]; liver microsomes, read-out: Stability): 85%; logD [5]: 1.6 |
| 7.71 |  |  |  | C=CC(=O)NCCCC[C@H](NC(=O)Cc1ccccc1)C(=O)N1CCN(C(=O)c2ccc([N+](=O)[O-])cc2)CC1 |  |
|  | 12.5 | 11 | 34.3 | C=CC(=O)NCCCC[C@H](NC(=O)Nc1ccc(F)cc1)C(=O)N1CCN(c2cccc(C)n2)CC1 | logD [5]: 0.47; IC50 [8]: 0.46 µM |
| 14.3 |  |  |  | C=CC(=O)NCCCC[C@H](NC(=O)C(F)(F)F)C(=O)N1CCN(c2cccc(-c3ccccc3)n2)CC1 |  |
| 2.52 |  |  |  | C=CC(=O)NCCCC[C@H](NC(=O)Cc1ccccc1)C(=O)N1CCN(c2ccc([N+](=O)[O-])cc2)CC1 |  |
| 2.6 |  |  |  | C=CC(=O)NCCCC[C@H](NC(=O)Cc1ccccc1)C(=O)N1CCN(c2cccnc2)CC1 |  |

Second part, the compound before the results:

| SMILES | Ki [3] [µM] | Papp (in vitro) [×10⁻⁶ cm/s] | Rm [6] [%] | CHI [7] | other results |
| --- | --- | --- | --- | --- | --- |
| C=CC(=O)NCCCC[C@H](NC(=O)Cc1ccccc1)C(=O)N1CCN(c2cccc(I)n2)CC1 |  |  |  |  | Ki [1]: 2.92 µM; IC50 [2]: 0.14 µM |
| C=CC(=O)NCCCC[C@H](NC(=O)Cc1ccc(F)cc1)C(=O)N1CCN(c2ccc([N+](=O)[O-])nc2)CC1 | 5.02 | 1.97 | 9 | 28.3 | Stability [4]: Stable; logD [5]: 1.85 |
| C=CC(=O)NCCCC[C@H](NC(=O)Cc1ccccc1)C(=O)N1CCN(c2cccc(OCCF)n2)CC1 |  |  |  |  | Ki [1]: 7.32 µM; IC50 [2]: 0.39 µM; IC50 [8]: 0.27 µM |
| C=CC(=O)NCCCC[C@H](NC(=O)Cc1ccccc1)C(=O)N1CCN(c2cccc(-c3ccccc3)n2)CC1 |  | 21.9 | 64 | 39 | Ki [1]: 7.76 µM; IC50 [2]: 0.2 µM; IC50 [8]: 0.15 µM |
| C=CC(=O)NCCCC[C@H](NC(=O)Cc1ccccc1)C(=O)N1CCN(c2cccc(Br)n2)CC1 |  |  |  |  | Ki [1]: 5.65 µM; IC50 [2]: 0.22 µM; IC50 [8]: 0.2 µM |
| CCC(=O)NCCCC[C@H](NC(=O)Cc1ccccc1)C(=O)N1CCN(c2ccc([N+](=O)[O-])nc2)CC1 |  |  |  |  | Ki [1]: 15 µM |
| C=CC(=O)NCCCC[C@H](NC(=O)Cc1cccs1)C(=O)N1CCN(c2cccc(C)n2)CC1 | 5.56 |  |  |  |  |
| NCCCCCNC(=S)Nc1ccc2c(c1)C(=O)OC21c2ccc(O)cc2Oc2cc(O)ccc21 |  |  |  |  | Ki [8]: 9.15 µM |
| C=CC(=O)NCCCC[C@@H](NC(=O)Cc1ccccc1)C(=O)N1CCN(c2cccc(C)n2)CC1 |  |  |  |  | IC50 [8]: 0.79 µM |
| C=CC(=O)NCCCC[C@H](NC(=O)Cc1ccccc1)C(=O)N1CCN(c2ccc(C(=O)OC)nc2)CC1 | 7.12 |  |  |  |  |
| CCN(CC)c1ccc2c(-c3ccccc3C(=O)N3CCC(C(=O)NCCCCCN)CC3)c3ccc(=[N+](CC)CC)cc-3oc2c1 |  |  |  |  | Ki [2]: 6.81 µM; Ki [8]: 7.14 µM |
| C=CC(=O)NCCCC[C@H](NC(=O)Cc1ccccc1)C(=O)N1CCN(c2ccc(F)nc2)CC1 | 10.9 | 3.54 | 4 | 26.8 | logD [5]: 1.66 |
| C=CC(=O)NCCCC[C@H](NC(=O)Nc1ccccc1)C(=O)N1CCN(c2ccc([N+](=O)[O-])nc2)CC1 | 7.96 |  |  |  |  |
| C=CC(=O)NCCCC[C@H](NC(=O)Cc1ccccc1)C(=O)N1CCN(c2ccccn2)CC1 |  |  |  |  | Stability [4]: Unstable; Ki [1]: 8.42 µM; IC50 [2]: 0.34 µM; IC50 [8]: 0.31 µM |
| C=CC(=O)NCCCC[C@H](NC(=O)Cc1ccccc1)C(=O)N1CCN(c2cccc(C(C)(C)C)n2)CC1 |  | 21.9 | 69 | 39.5 | Ki [1]: 3.5 µM; IC50 [2]: 0.17 µM |
| C=CC(=O)NCCCC[C@H](NC(=O)Cc1ccccc1)C(=O)N1CCN(S(=O)(=O)c2cccc3c(N(C)C)cccc23)CC1 |  | 7.68 | 38 | 37.7 |  |
| C=CC(=O)NCCCC[C@H](NC(=O)Cc1ccccc1)C(=O)N1CCN(c2cccc(Cl)n2)CC1 |  |  |  |  | Ki [1]: 4.43 µM; IC50 [2]: 0.18 µM; IC50 [8]: 0.16 µM |
| C=CC(=O)NCCCC[C@H](NC(=O)Cc1ccccc1F)C(=O)N1CCN(c2cccc([N+](=O)[O-])n2)CC1 | 1.98 | 8.74 | 12 | 30.7 | logD [5]: 2.25 |
| C=CC(=O)NCCCC[C@H](NC(=O)Cc1ccc(F)cc1)C(=O)N1CCN(c2cccc(C)n2)CC1 |  | 11.4 | 10 | 32.4 | logD [5]: 0.36 |
| C=CC(=O)NCCCC[C@H](NC(=O)Cc1ccccc1)C(=O)N1CCN(c2ccc(C(F)(F)F)nc2)CC1 | 6.77 | 8.98 | 11 | 31.8 | Stability [4]: Stable; logD [5]: 2.13 |
| C=CC(=O)NCCCC[C@H](NC(=O)c1ccc(F)cc1)C(=O)N1CCN(c2cccc(C)n2)CC1 |  | 12.7 | 16 | 31.4 | logD [5]: 0.28 |
| CCC(=O)NCCCC[C@H](NC(=O)Cc1ccccc1)C(=O)N1CCN(c2cccc(C)n2)CC1 |  |  |  |  | Ki [1]: 64.3 µM |
| NS(=O)(=O)c1cc2c(cc1Cl)NCNS2(=O)=O [HYDROCHLOROTHIAZIDE] |  | 0.06 |  |  |  |
| C=CC(=O)NCCCC[C@H](NC(=O)Cc1cccc(F)c1)C(=O)N1CCN(c2cccc(C)n2)CC1 |  | 12.5 | 24 | 30.9 |  |
| C=CC(=O)NCCCC[C@H](NC(=O)Cc1ccc(I)cc1)C(=O)N1CCN(c2cccc(C)n2)CC1 |  |  |  |  | IC50 [8]: 0.16 µM |
| C=CC(=O)NCCCC[C@H](NC(=O)Cc1ccccc1)C(=O)N1CCN(Cc2ccc(F)cc2)CC1 | 7.6 | 10.3 | 12 | 32 | logD [5]: 2.65 |
| C=CC(=O)NCCCC[C@H](NC(=O)Cc1ccccc1)C(=O)N1CCN(c2ccc(C(N)=O)nc2)CC1 | 5.72 |  |  |  |  |
